PubChem BioAssay (NCI)
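These data come from cells grown in 96-well plates and exposed to compound for 48 hours at five concentrations. TGI: total growth inhibition.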 Where a SMILES comes first, the peptide text is derived from it. The star is where a group is joined. Boc = CC(C)(C)OC(=O)*

Columns and labels:
Assay in all cases: DTP human tumour cell line panel, 48 h
786-0 renal = test system: 786-0 renal
CCRF-CEM leukemia = test system: CCRF-CEM leukemia
HS 578T breast = test system: HS 578T breast
K-562 leukemia = test system: K-562 leukemia
KM12 colon = test system: KM12 colon
MALME-3M melanoma = test system: MALME-3M melanoma
MDA-MB-435 = test system: MDA-MB-435
NCI-H23 lung = test system: NCI-H23 lung
NCI-H522 lung = test system: NCI-H522 lung
OVCAR-3 ovarian = test system: OVCAR-3 ovarian
RPMI-8226 leukemia = test system: RPMI-8226 leukemia
TK-10 renal = test system: TK-10 renal
UACC-257 melanoma = test system: UACC-257 melanoma
UACC-62 melanoma = test system: UACC-62 melanoma
UO-31 renal = test system: UO-31 renal
OVCAR-8 ovarian = test system: OVCAR-8 ovarian
SF-539 CNS = test system: SF-539 CNS

SMILES | TGI (786-0 renal) [µM] | TGI (CCRF-CEM leukemia) [µM] | TGI (HS 578T breast) [µM] | TGI (K-562 leukemia) [µM] | TGI (KM12 colon) [µM] | TGI (MALME-3M melanoma) [µM] | TGI (MDA-MB-435) [µM] | TGI (NCI-H23 lung) [µM] | TGI (NCI-H522 lung) [µM] | TGI (OVCAR-3 ovarian) [µM] | TGI (RPMI-8226 leukemia) [µM] | TGI (TK-10 renal) [µM] | TGI (UACC-257 melanoma) [µM] | TGI (UACC-62 melanoma) [µM] | TGI (UO-31 renal) [µM] | TGI (OVCAR-8 ovarian) [µM] | TGI (SF-539 CNS) [µM]
Fc1ccc(Oc2nc3ccccc3nc2-c2ccccc2)cc1 | > 100 | > 100 | > 100 | > 100 | > 100 | > 100 | > 100 | > 100 | > 100 | > 100 | > 100 | > 100 | > 100 | > 100 | > 100 | – | –
Cc1cccc2c(N)c3cccc(C(=O)NCC[N+](C)(C)Cc4ccc(S(C)(=O)=O)cc4)c3nc12 | > 100 | > 62 | > 100 | > 52.2 | > 100 | > 100 | > 100 | > 100 | – | > 100 | > 45.4 | > 100 | > 100 | > 100 | > 100 | > 100 | > 100
O=C(/C=C\c1ccsc1)c1ccccc1 | 19.7 | 3.41 | 20.4 | > 70.6 | 8.5 | – | 23.1 | 15.6 | 4.34 | 27.9 | 7.32 | 29.3 | 34.8 | 24.6 | 19.2 | 27.2 | 24.2
CC(=O)Nc1ncc2c(n1)-c1ccccc1OC2c1ccccc1 (stereo not drawn) | 38.2 | > 100 | 55.4 | – | > 100 | – | > 100 | > 100 | > 100 | > 100 | > 100 | 63.2 | > 100 | 36.4 | > 100 | 66.2 | 35.1
CC(NC(=O)C(N)CC(=O)O)C(=O)OC12CC3CC(CC(C3)C1)C2 (stereo not drawn) | > 100 | > 100 | > 100 | > 100 | > 100 | – | > 100 | > 100 | > 100 | – | > 100 | > 100 | > 100 | > 100 | > 100 | > 100 | –
Cc1ccc(S(=O)(=O)NN=C2C(C)(C)CC2(C)C)cc1 | > 100 | > 100 | > 100 | > 100 | > 100 | > 100 | > 100 | > 100 | > 100 | > 100 | – | > 100 | > 100 | > 100 | > 100 | > 100 | > 100
COc1ccc2nc3c(C)cc4ccccc4n3c2c1 | > 100 | > 100 | 79.3 | > 100 | > 100 | > 100 | > 100 | > 100 | – | > 100 | > 100 | > 100 | > 100 | > 100 | > 100 | > 100 | > 100
COc1ccc(-c2[nH]c(-c3ccc(OC)cc3)c(-c3ccccn3)c2-c2ccccn2)cc1 | > 100 | > 100 | > 100 | 84.5 | > 100 | > 100 | > 100 | > 100 | – | > 100 | 69.5 | > 100 | > 100 | > 100 | > 100 | > 100 | > 100
CC1=NN(c2cccc(Cl)c2)C2(C1=Cc1cccs1)C(Cl)C(=O)N2c1nc2ccccc2s1 (stereo not drawn) | 29.1 | – | 68.7 | 72.4 | > 100 | – | > 100 | 47.2 | 38.2 | 52 | 43.6 | 66.3 | 57.3 | – | 69.6 | 48.2 | 30.5
CCCC(=O)N(C)N=Nc1ccc(C(=O)OCC)cc1 | > 100 | > 100 | > 100 | > 100 | > 100 | > 100 | – | > 100 | > 100 | > 100 | > 100 | > 100 | > 100 | > 100 | > 100 | > 100 | > 100
CC(NC(=O)C1CCCN1C(=O)CNC(=O)OC(C)(C)C)C(=O)O (stereo not drawn) (Boc-Gly-Pro-Ala-OH; configuration not given here) | > 100 | – | > 100 | > 100 | > 100 | > 100 | > 100 | > 100 | > 100 | > 100 | > 100 | > 100 | > 100 | > 100 | > 100 | > 100 | > 100
CC(O)CC(=O)CO[C@H]1[C@H](O)[C@@H](O)[C@@H](O)[C@@H]2NC(=O)c3c(cc4c(c3O)OCO4)[C@H]21 (stereo partly drawn) | 0.485 | – | 0.153 | 4.14 | 0.202 | 0.0529 | 0.175 | 0.457 | 0.0962 | 0.609 | 0.147 | 0.238 | 1.02 | 0.682 | 0.588 | 1.53 | 0.0712
CCOC(=O)NC(Nc1ccc(S(=O)(=O)Nc2ccc(OC)nn2)cc1)(C(F)(F)F)C(F)(F)F | 59 | 70.4 | > 100 | > 100 | > 100 | 40.2 | 35.8 | 96.4 | – | 55.7 | 54.8 | 68.8 | 98.6 | > 100 | > 100 | > 100 | 36.5
CCOc1cc(/C=N/c2nc3cc4sc(/N=C/c5ccc(O)c(OCC)c5)nc4cc3s2)ccc1O | > 100 | – | > 100 | > 100 | > 100 | > 100 | > 100 | > 100 | > 100 | > 100 | > 100 | > 100 | > 100 | > 100 | > 100 | > 100 | 62.3
